Publication PMC4933242, “Low or No Inhibitory Potency of the Canonical Galectin Carbohydrate-binding Site by Pectins and Galactomannans*” (The Journal of Biological Chemistry, 2016)
Read-outs that look alike come from different tables or passages of the source.

T1: galectin-2 (Homo sapiens, UniProt P05162)
T1 sequence (P05162 1-132): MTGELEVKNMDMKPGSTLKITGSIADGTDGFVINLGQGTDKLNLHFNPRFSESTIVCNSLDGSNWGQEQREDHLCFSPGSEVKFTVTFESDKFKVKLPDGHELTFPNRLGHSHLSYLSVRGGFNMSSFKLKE

T2: Gal-4N (Homo sapiens, UniProt P56470)
T2 construct: Gal-4N
T2 sequence (P56470 19-150 limits assumed): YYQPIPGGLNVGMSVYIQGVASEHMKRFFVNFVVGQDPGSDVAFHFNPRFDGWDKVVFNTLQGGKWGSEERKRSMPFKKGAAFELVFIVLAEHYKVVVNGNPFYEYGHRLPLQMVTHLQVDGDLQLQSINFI

T3: Gal-4C (Homo sapiens, UniProt P56470)
T3 construct: Gal-4C
T3 sequence (P56470 194-323 limits assumed): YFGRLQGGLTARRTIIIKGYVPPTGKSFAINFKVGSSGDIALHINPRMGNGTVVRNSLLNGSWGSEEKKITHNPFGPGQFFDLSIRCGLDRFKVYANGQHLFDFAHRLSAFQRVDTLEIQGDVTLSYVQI

T4: galectin-8N (Homo sapiens, UniProt O00214)
T4 construct: the N-terminal CRD of galectin-8 (galectin-8N)
T4 sequence (O00214 19-152 limits assumed): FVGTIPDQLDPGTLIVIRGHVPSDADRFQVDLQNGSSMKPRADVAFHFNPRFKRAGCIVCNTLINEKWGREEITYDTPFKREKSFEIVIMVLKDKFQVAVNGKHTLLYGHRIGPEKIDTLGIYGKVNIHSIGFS


Columns and labels:
galectin-9N = biological target: T5, galectin-9N (Homo sapiens, UniProt O00182); assay: Fluorescence anisotropy assay, galectin-9N; assay type: binding; conditions: about 1 μM galectin, 0.1 or 0.02 μM probe; NI = no inhibition at highest concentration tested; read-out: Calculated Kd, Gal-9N
T5 construct: the N-terminal CRD of galectin-9 (galectin-9N)
T5 sequence (O00182 17-148 limits assumed): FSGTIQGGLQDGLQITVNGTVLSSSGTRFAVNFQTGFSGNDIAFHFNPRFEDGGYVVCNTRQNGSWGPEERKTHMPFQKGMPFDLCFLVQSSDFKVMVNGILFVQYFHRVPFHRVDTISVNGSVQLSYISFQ
Protocol: (§1) FA was used to analyze interactions of probes and ligands with galectins in solution, as described before ([41][–][44]). A PheraStarFS plate reader, with software PHERAstar Mars version 2.10 R3 (BMG, Offenburg, Germany), was used, and FA of fluorescein-tagged saccharide probes was measured with excitation at 485 nm and emission at 520 nm.
(§2) The anisotropy (A) is given in units of mA, where the theoretical maximum is 400, and the value for free fluorescein typically 23. All conditions were measured in at least two duplicate wells.
(§3) In this study, the effect of inhibitors of the saccharide probe/galectin interaction was tested in two ways. In the first, a fixed low concentration of fluorescein-tagged probe (0.1 μM) and galectin were mixed with a range of concentrations of inhibitor. An optimal probe was chosen for each galectin to permit use of as low as possible concentration of galectin, while still achieving a sufficient rise in anisotropy for a reliable measuring range ([42][–][44]). […] With structurally defined inhibitors (pure synthetic galacto-oligosaccharides, small galactomannans, and reference ligands) the molecular mass, molar concentrations, and number of binding sites (in this case one binding site per ligand) were known and their dissociation constants (Kd) could therefore be directly calculated, using the data from the FA assay as described in Sörme et al. ([41]). […] Even if the molar concentration of the inhibitor is not known, the anisotropy value at a given condition permits calculation of the molar concentration of free galectin, as described below, and from this what fraction of the galectin is bound by a given mass per volume concentration of inhibitor. From this, the ratio of the molar concentration of the free inhibitor binding sites to their Kd value can be calculated, even if the FA assay cannot distinguish between the case when this is due to a few high affinity binding sites in the polysaccharide fraction or many of low affinity.

galectin-2 = biological target: T1, galectin-2; assay: Fluorescence anisotropy assay, galectin-2; assay type: binding; conditions: about 1 μM galectin, 0.1 or 0.02 μM probe; NI = no inhibition at highest concentration tested; read-out: Calculated Kd, Gal-2
Protocol: as §1, §2
(§4) In this study, the effect of inhibitors of the saccharide probe/galectin interaction was tested in two ways. […] With structurally defined inhibitors (pure synthetic galacto-oligosaccharides, small galactomannans, and reference ligands) the molecular mass, molar concentrations, and number of binding sites (in this case one binding site per ligand) were known and their dissociation constants (Kd) could therefore be directly calculated, using the data from the FA assay as described in Sörme et al. ([41]). […] From this, the ratio of the molar concentration of the free inhibitor binding sites to their Kd value can be calculated, even if the FA assay cannot distinguish between the case when this is due to a few high affinity binding sites in the polysaccharide fraction or many of low affinity.

Gal-4N = biological target: T2, Gal-4N; assay: Fluorescence anisotropy assay, galectin-4N; assay type: binding; conditions: about 1 μM galectin, 0.1 or 0.02 μM probe; NI = no inhibition at highest concentration tested; read-out: Calculated Kd, Gal-4N
Protocol: as §1, §2, §4

galectin-3 [1] = biological target: T6, galectin-3 (Homo sapiens, UniProt P17931); assay: Fluorescence anisotropy assay, galectin-3; assay type: binding; conditions: about 1 μM galectin, 0.1 or 0.02 μM probe; NI = no inhibition at highest concentration tested; read-out: Calculated Kd, Gal-3
T6 sequence (P17931 whole entry): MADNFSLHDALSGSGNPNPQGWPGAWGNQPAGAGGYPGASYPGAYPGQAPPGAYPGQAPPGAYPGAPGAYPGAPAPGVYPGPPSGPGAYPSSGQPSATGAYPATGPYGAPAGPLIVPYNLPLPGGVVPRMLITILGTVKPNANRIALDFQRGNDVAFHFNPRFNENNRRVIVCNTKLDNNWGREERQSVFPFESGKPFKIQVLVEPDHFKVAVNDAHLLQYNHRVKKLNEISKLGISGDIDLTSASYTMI
Protocol: as §1, §2, §3

Gal-4C = biological target: T3, Gal-4C; assay: Fluorescence anisotropy assay, galectin-4C; assay type: binding; conditions: about 1 μM galectin, 0.1 or 0.02 μM probe; NI = no inhibition at highest concentration tested; read-out: Calculated Kd, Gal-4C
Protocol: as §1, §2, §3

galectin-8N = biological target: T4, galectin-8N; assay: Fluorescence anisotropy assay, galectin-8N; assay type: binding; conditions: about 1 μM galectin, 0.1 or 0.02 μM probe; read-out: Calculated Kd, Gal-8N
Protocol: as §1, §2, §4

galectin-1 = galectin-1 (Homo sapiens, UniProt P09382); assay: Fluorescence anisotropy assay, inhibition of probe binding to galectin-1; conditions: for Kd: about 1 μM galectin, 0.1 or 0.02 μM probe, 4 mM β-mercaptoethanol, NI = no inhibition at highest concentration tested, read-out: Calculated Kd, Gal-1
galectin-1, sequence (P09382 whole entry, species assumed): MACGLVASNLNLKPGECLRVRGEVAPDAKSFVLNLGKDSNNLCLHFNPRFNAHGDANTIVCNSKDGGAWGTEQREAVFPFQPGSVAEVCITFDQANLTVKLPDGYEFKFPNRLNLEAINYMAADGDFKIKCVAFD
Protocol: as §1, §2, §3

Gal-9C = biological target: T7, Gal-9C (Homo sapiens, UniProt O00182); assay: Fluorescence anisotropy assay, galectin-9C; assay type: binding; conditions: about 1 μM galectin, 0.1 or 0.02 μM probe; read-out: Calculated Kd, Gal-9C
T7 construct: Gal-9C
T7 sequence (O00182 227-355 limits assumed): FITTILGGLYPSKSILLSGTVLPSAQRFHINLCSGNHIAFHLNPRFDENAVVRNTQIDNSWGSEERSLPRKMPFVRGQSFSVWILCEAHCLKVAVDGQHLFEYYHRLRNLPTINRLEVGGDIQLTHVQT
Protocol: as §1, §2, §3

galectin-3 [2] = biological target: T6, galectin-3; conditions: given as example of low affinity; no reference given; read-out: Kd for galectin-3 canonical carbohydrate-binding site; cited from earlier work
Gal-3 R186S = Gal-3 R186S (Homo sapiens, UniProt P17931, R186S); assay: Fluorescence anisotropy assay, galectin-3 R186S mutant; assay type: binding; conditions: about 1 μM galectin, 0.1 or 0.02 μM probe; read-out: Calculated Kd, Gal-3 R186S
Gal-3 R186S, sequence (P17931 whole entry R186S): as the sequence (P17931 whole entry) above, with R186S counted along it
Protocol: as §1, §2, §4

galectin-1 wild type = biological target: T8, galectin-1 wild type (UniProt P09382 1-135); assay: fluorescence polarisation; fluorescence anisotropy competition in solution; galectin-1 WT 0.5 uM, tdga saccharide probe 0.1 uM, increasing concentrations of ASF in the presence of the peptide Anginex, with or without beta-mercaptoethanol; conditions: both partners purified
T8 construct: galectin-1, wild type; also called Gal-1; galectin-1 WT; source: called purified galectins in the discussion
T8 sequence (P09382 whole entry): as the sequence (P09382 whole entry, species assumed) above

| Molecule | Kd (galectin-9N) | Kd (galectin-3 [1]) | Kd (galectin-1) | further results |
| --- | --- | --- | --- | --- |
| OC1OC[C@H](O)[C@H](O)[C@H]1O (mixture of isomers) [L-Arabinose, L-arabinose, reference compound] | 94000 µM |  |  |  |
| OC[C@H]1O[C@H](OC[C@H]2OC(O)[C@@H](O)[C@@H](O)[C@@H]2O[C@@H]2O[C@H](CO)[C@@H](O[C@@H]3O[C@H](CO)[C@@H](O)[C@H](O)[C@@H]3O)[C@H](O)[C@@H]2O)[C@H](O)[C@@H](O)[C@H]1O (stereo partly drawn) [6^1-α-Galactosyl-mannotriose, 6^1-α-D-galactosyl-mannotriose] | 2400 µM | 3600 µM |  | Kd (galectin-2): > 10000 µM; Kd (Gal-4N): > 10000 µM; Kd (Gal-4C): > 10000 µM; Kd (galectin-8N): 7400 µM |
| OC[C@H]1O[C@H](OC[C@H]2O[C@@H](O[C@H]3[C@H](O)[C@H](O)[C@H](O[C@H]4[C@H](O)[C@H](O)[C@H](O[C@H]5[C@H](O)[C@H](O)C(O)O[C@@H]5CO)O[C@@H]4CO)O[C@@H]3CO[C@H]3O[C@H](CO)[C@H](O)[C@H](O)[C@H]3O)[C@@H](O)[C@@H](O)[C@@H]2O[C@@H]2O[C@H](CO)[C@@H](O)[C@H](O)[C@@H]2O)[C@H](O)[C@@H](O)[C@H]1O (stereo partly drawn) [6^3,6^4-α-Galactosyl-mannopentaose, 6^3,6^4-α-D-galactosyl-mannopentaose] | 980 µM | 1500 µM | 4300 µM | Kd (galectin-2): 8300 µM; Kd (Gal-9C): 2000 µM; Kd (Gal-4C): > 10000 µM; Kd (galectin-8N): 2500 µM |
| OC[C@H]1O[C@@H](OC[C@H]2OC(O)[C@H](O)[C@@H](O[C@@H]3O[C@H](CO)[C@H](O)[C@H](O)[C@H]3O)[C@H]2O)[C@H](O)[C@@H](O)[C@H]1O (stereo partly shown) [Branched Galβ1–6(Galβ1–3)Gal, Galβ1–6(Galβ1–3)Gal] | 100 µM | 130 µM | 1300 µM |  |
| OC[C@H]1O[C@@H](OC[C@H]2O[C@@H](OC[C@H]3OC(O)[C@H](O)[C@@H](O)[C@H]3O)[C@H](O)[C@@H](O[C@@H]3O[C@H](CO)[C@H](O)[C@H](O)[C@H]3O)[C@H]2O)[C@H](O)[C@@H](O)[C@H]1O (stereo partly shown) [Branched Galβ1–6(Galβ1–3)Galβ1–6Gal, Galβ1–6(Galβ1–3)Galβ1–6Gal] | 51 µM | 80 µM | 800 µM |  |
| O=C[C@H](O)[C@@H](O)[C@@H](O)[C@H](O)CO [Gal, galactose] |  |  |  | Kd (galectin-3 [2]): ~5000 µM |
| OC[C@H]1O[C@@H](O[C@H]2[C@@H](O)[C@@H](CO)OC(O)[C@@H]2O)[C@H](O)[C@@H](O)[C@H]1O (stereo partly shown) [Galβ1–3Gal] | 150 µM | 180 µM |  |  |
| OC[C@H]1O[C@@H](O[C@H]2[C@@H](O)[C@@H](CO)O[C@@H](OC[C@H]3OC(O)[C@H](O)[C@@H](O)[C@H]3O)[C@@H]2O)[C@H](O)[C@@H](O)[C@H]1O (stereo partly shown) [Galβ1–3Galβ1–6Gal] | 68 µM | 110 µM | 1200 µM |  |
| OC[C@H]1O[C@@H](O[C@@H]2[C@H](O)[C@@H](O)C(O)O[C@@H]2CO)[C@H](O)[C@@H](O)[C@H]1O (stereo partly shown) [Galβ1–4Gal] | 1200 µM |  |  |  |
| OC[C@H]1O[C@@H](OC[C@H]2OC(O)[C@H](O)[C@@H](O)[C@H]2O)[C@H](O)[C@@H](O)[C@H]1O (stereo partly shown) [Galβ1–6Gal] | > 2000 µM |  | > 2000 µM |  |
| OC[C@H]1O[C@@H](OC[C@H]2O[C@@H](OC[C@H]3OC(O)[C@H](O)[C@@H](O)[C@H]3O)[C@H](O)[C@@H](O)[C@H]2O)[C@H](O)[C@@H](O)[C@H]1O (stereo partly shown) [Galβ1–6Galβ1–6Gal] | > 2000 µM | > 2000 µM | > 2000 µM |  |
| COC1OC(CO)C(O)C(O)C1O (stereo not drawn) [Methyl β-Gal, reference compound] | 4000 µM |  |  | Kd (Gal-9C): 8600 µM |
| CO[C@@H]1O[C@H](CO)[C@@H](O[C@@H]2O[C@H](CO)[C@H](O)[C@H](O)[C@H]2O)[C@H](O)[C@H]1O [Methyl β-Lac, reference compound] |  | 110 µM | 170 µM | Kd (Gal-9C): 190 µM; Kd (Gal-4N): 2600 µM; Kd (Gal-4C): 2900 µM; Kd (Gal-3 R186S): 290 µM |
| CO[C@@H]1O[C@H](CO)[C@@H](O[C@@H]2O[C@H](CO)[C@H](O)[C@H](O)[C@H]2O)[C@H](O)[C@H]1NC(C)=O [Methyl β-LacNAc, reference compound] |  | 52 µM | 84 µM | Kd (Gal-3 R186S): 1200 µM |
| Anginex [reference compound] |  |  |  | influence on galectin-1 interaction with Davanat® (galectin-1; galectin-1 0.5 μM, tdga probe 0.1 μM, Fig. 7E): no influence; potentiation of the inhibition of galectin-1 by ASF (factor) (galectin-1; with or without β-mercaptoethanol, Fig. 7F): about 500 |
| asialofetuin (natural protein, UniProt P12763 19-359, looked up, asialofetuin (ASF), a glycoprotein; Desialylated fetuin; also called ASF) IPLDPVAGYKEPACDDPDTEQAALAAVDYINKHLPRGYKHTLNQIDSVKVWPRRPTGEVYDIEIDTLETTCHVLDPTPLANCSVRQQTQHAVEGDCDIHVLKQDGQFSVLFTKCDSSPDSAEDVRKLCPDCPLLAPLNDSRVVHAVEVALATFNAESNGSYLQLVEISRAQFVPLPVSVSVEFAVAATDCIAKEVVDPTKCNLLAEKQYGFCKGSVIQKALGGEDVRVTCTLFQTQPVIPQPQPDGAEAEAPSAVPDAAGPTPSAAGPPVASVVVGPSVVAVPLPLHRAHYDLRHTFSGVASVESSSGEAFHVGKTPIVGQPSIPGGPVRLCPGRIRYFKI |  |  |  | fold potentiation by Anginex of the inhibition of galectin-1/probe binding by ASF (galectin-1 wild type): ~500 fold |
